Results from patent US20260028365A1 (BIOGEN MA INC., priority 2022, published 2026).

Key:
Tyk2 = Tyk2 (Homo sapiens (Human), UniProt P29597); assay: pSTAT4 Cell Assay (MSD, NK92 cells); format: cell-based; settings: MSD
JH2 domain of human Tyk2 = JH2 domain of human Tyk2 (Homo sapiens (Human), UniProt P29597); assay: JH2 Biochemical Assay (TR-FRET probe displacement); format: binding; settings: TR-FRET probe displacement, JH2 domain of human Tyk2
JH2 domain of human Tyk2, sequence (P29597 575-876): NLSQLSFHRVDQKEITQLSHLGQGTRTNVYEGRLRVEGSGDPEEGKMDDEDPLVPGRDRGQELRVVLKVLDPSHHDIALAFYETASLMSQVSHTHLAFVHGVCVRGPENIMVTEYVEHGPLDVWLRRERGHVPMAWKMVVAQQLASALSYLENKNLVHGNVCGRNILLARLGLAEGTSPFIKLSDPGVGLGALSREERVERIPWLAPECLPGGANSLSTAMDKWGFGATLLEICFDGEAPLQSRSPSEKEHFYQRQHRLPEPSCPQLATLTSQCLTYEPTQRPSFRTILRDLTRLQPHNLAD

Tyk2, sequence (P29597 whole entry, the tested form may be a part): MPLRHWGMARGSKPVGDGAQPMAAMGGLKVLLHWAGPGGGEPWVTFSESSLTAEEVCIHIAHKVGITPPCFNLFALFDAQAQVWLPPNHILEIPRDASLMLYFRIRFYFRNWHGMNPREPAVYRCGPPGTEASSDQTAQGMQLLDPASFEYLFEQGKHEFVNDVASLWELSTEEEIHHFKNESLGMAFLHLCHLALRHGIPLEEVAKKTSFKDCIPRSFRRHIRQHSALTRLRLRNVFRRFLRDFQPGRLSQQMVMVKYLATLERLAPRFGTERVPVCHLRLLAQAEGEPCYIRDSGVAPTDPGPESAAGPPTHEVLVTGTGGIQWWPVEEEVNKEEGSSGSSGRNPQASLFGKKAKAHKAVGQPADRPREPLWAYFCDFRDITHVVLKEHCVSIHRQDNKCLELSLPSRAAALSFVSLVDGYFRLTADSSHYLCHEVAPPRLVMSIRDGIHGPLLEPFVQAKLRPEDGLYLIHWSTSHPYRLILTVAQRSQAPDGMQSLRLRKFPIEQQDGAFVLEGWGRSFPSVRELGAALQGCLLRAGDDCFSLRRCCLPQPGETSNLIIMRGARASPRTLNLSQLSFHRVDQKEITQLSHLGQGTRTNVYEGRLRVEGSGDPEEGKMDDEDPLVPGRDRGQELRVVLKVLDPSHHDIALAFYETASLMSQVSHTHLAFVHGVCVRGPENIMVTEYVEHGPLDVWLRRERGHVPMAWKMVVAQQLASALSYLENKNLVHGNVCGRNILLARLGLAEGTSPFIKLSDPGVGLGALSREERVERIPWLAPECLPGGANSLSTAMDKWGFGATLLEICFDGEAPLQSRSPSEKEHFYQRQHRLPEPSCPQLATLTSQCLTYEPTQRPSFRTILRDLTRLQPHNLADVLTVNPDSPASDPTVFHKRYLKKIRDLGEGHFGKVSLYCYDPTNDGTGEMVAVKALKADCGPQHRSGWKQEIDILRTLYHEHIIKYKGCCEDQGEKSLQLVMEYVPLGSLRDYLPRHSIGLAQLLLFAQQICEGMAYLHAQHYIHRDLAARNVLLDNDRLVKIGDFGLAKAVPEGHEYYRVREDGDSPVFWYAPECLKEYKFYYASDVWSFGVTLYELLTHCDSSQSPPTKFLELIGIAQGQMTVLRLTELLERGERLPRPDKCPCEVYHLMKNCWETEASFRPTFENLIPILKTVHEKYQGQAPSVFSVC

## CCCc1cnc(NC(C)=O)cc1Nc1cc(C)nc(C(C)(F)F)n1 [Example 43, N-(4-((2-(1,1-difluoroethyl)-6-methylpyrimidin-4-yl)amino)-5-propylpyridin-2-yl)acetamide]
Tyk2
  IC50: ≥ 1 µM
JH2 domain of human Tyk2
  IC50: 0.01 to 0.1 µM

## CC(=O)Nc1cc(Nc2cc(C)nc(C(C)(F)F)n2)c(OC2CC2)cn1 [Example 45, N-(5-cyclopropoxy-4-((2-(1,1-difluoroethyl)-6-methylpyrimidin-4-yl)amino)pyridin-2-yl)acetamide]
Tyk2
  IC50: 0.01 to 0.1 µM
JH2 domain of human Tyk2
  IC50: ≤ 0.01 µM

## COCc1cnc(NC(C)=O)cc1Nc1cc(C)nc(C(C)(F)F)n1 [Example 47, N-(4-((2-(1,1-difluoroethyl)-6-methylpyrimidin-4-yl)amino)-5-(methoxymethyl)pyridin-2-yl)acetamide]
Tyk2
  IC50: ≥ 1 µM
JH2 domain of human Tyk2
  IC50: 0.01 to 0.1 µM

## COCc1cnc(NC(C)=O)cc1Nc1ccc(-c2ccn(C)n2)c(OC)n1 [Example 48, N-(4-((6-methoxy-5-(1-methyl-1H-pyrazol-3-yl)pyridin-2-yl)amino)-5-(methoxymethyl)pyridin-2-yl)acetamide]
Tyk2
  IC50: ≥ 1 µM
JH2 domain of human Tyk2
  IC50: 0.1 to 1 µM

## CCOc1cnc(NC(C)=O)cc1Nc1cc(C(C)C)nc(C(C)(F)F)n1 [Example 51, N-(4-((2-(1,1-difluoroethyl)-6-isopropylpyrimidin-4-yl)amino)-5-ethoxypyridin-2-yl)acetamide]
Tyk2
  IC50: 0.01 to 0.1 µM
JH2 domain of human Tyk2
  IC50: ≤ 0.01 µM

## CCOc1cnc(NC(C)=O)cc1Nc1cc(OC2CC(C)(O)C2)nc(C(C)(F)F)n1 (centres unmarked) [Example 53, N-(4-((2-(1,1-difluoroethyl)-6-(3-hydroxy-3-methylcyclobutoxy)pyrimidin-4-yl)amino)-5-ethoxypyridin-2-yl)acetamide]
Tyk2
  IC50: 0.01 to 0.1 µM
JH2 domain of human Tyk2
  IC50: ≤ 0.01 µM

## C=Cc1cc(Nc2cc(NC(C)=O)ncc2OCCOC)nc(C(C)(F)F)n1 [Example 55, N-(4-((2-(1,1-difluoroethyl)-6-vinylpyrimidin-4-yl)amino)-5-(2-methoxyethoxy)pyridin-2-yl)acetamide]
Tyk2
  IC50: ≤ 0.01 µM
JH2 domain of human Tyk2
  IC50: ≤ 0.01 µM

## COCCOc1cnc(NC(C)=O)cc1Nc1cccc(C(C)(F)F)n1 [Example 56, N-(4-((6-(1,1-difluoroethyl)pyridin-2-yl)amino)-5-(2-methoxyethoxy)pyridin-2-yl)acetamide]
Tyk2
  IC50: ≤ 0.01 µM
JH2 domain of human Tyk2
  IC50: ≤ 0.01 µM

## CC(=O)Nc1cc(Nc2cc(C)nc(C(C)(F)F)n2)c(OCC2(C(F)(F)F)CC2)cn1 [Example 57, N-(4-((2-(1,1-difluoroethyl)-6-methylpyrimidin-4-yl)amino)-5-((1-(trifluoromethyl)cyclopropyl)methoxy)pyridin-2-yl)acetamide]
Tyk2
  IC50: 0.01 to 0.1 µM
JH2 domain of human Tyk2
  IC50: ≤ 0.01 µM

## COCC(C)Oc1cnc(NC(C)=O)cc1Nc1cc(C)nc(C(C)(F)F)n1 (centres unmarked) [Example 59, N-(4-((2-(1,1-difluoroethyl)-6-methylpyrimidin-4-yl)amino)-5-((1-methoxypropan-2-yl)oxy)pyridin-2-yl)acetamide]
Tyk2
  IC50: 0.1 to 1 µM
JH2 domain of human Tyk2
  IC50: ≤ 0.01 µM

## COC(C)COc1cnc(NC(C)=O)cc1Nc1cc(C)nc(C(C)(F)F)n1 (centres unmarked) [Example 60, N-(4-((2-(1,1-difluoroethyl)-6-methylpyrimidin-4-yl)amino)-5-(2-methoxypropoxy)pyridin-2-yl)acetamide]
Tyk2
  IC50: 0.01 to 0.1 µM
JH2 domain of human Tyk2
  IC50: ≤ 0.01 µM

## CC(=O)Nc1cc(Nc2cc(C)nc(C(C)(F)F)n2)c(OCC2COC2)cn1 [Example 61, N-(4-((2-(1,1-difluoroethyl)-6-methylpyrimidin-4-yl)amino)-5-(oxetan-3-ylmethoxy)pyridin-2-yl)acetamide]
Tyk2
  IC50: 0.01 to 0.1 µM
JH2 domain of human Tyk2
  IC50: ≤ 0.01 µM

## CC(=O)Nc1cc(Nc2cc(C)nc(C(C)(F)F)n2)c(OCC2CCC2)cn1 [Example 62, N-(5-(cyclobutylmethoxy)-4-((2-(1,1-difluoroethyl)-6-methylpyrimidin-4-yl)amino)pyridin-2-yl)acetamide]
Tyk2
  IC50: 0.01 to 0.1 µM
JH2 domain of human Tyk2
  IC50: ≤ 0.01 µM

## COCCOc1cnc(NC(C)=O)cc1Nc1cc(C)cc(C(C)(F)F)n1 [Example 63, N-(4-((6-(1,1-difluoroethyl)-4-methylpyridin-2-yl)amino)-5-(2-methoxyethoxy)pyridin-2-y1)acetamide]
Tyk2
  IC50: ≤ 0.01 µM
JH2 domain of human Tyk2
  IC50: ≤ 0.01 µM

## CC(=O)Nc1cc(Nc2cccc(C(C)(F)F)n2)c(OCCN2CCCC2)cn1 [Example 64, N-(4-((6-(1,1-difluoroethyl)pyridin-2-yl)amino)-5-(2-(pyrrolidin-1-yl)ethoxy)pyridin-2-yl)acetamide]
Tyk2
  IC50: 0.01 to 0.1 µM
JH2 domain of human Tyk2
  IC50: ≤ 0.01 µM

## CCc1cc(Nc2cc(NC(C)=O)ncc2OCCOC(F)F)nc(C(C)(F)F)n1 [Example 68, N-(4-((2-(1,1-difluoroethyl)-6-ethylpyrimidin-4-yl)amino)-5-(2-(difluoromethoxy)ethoxy)pyridin-2-yl)acetamide]
Tyk2
  IC50: ≤ 0.01 µM
JH2 domain of human Tyk2
  IC50: ≤ 0.01 µM

## CCc1cc(Nc2cc(NC(C)=O)ncc2OCCN2CCOCC2)nc(C(C)(F)F)n1 [Example 70, N-(4-((2-(1,1-difluoroethyl)-6-ethylpyrimidin-4-yl)amino)-5-(2-morpholinoethoxy)pyridin-2-yl)acetamide]
Tyk2
  IC50: ≤ 0.01 µM
JH2 domain of human Tyk2
  IC50: ≤ 0.01 µM

## CCc1cc(Nc2cc(NC(C)=O)ncc2OCCN2CCN(C)CC2)nc(C(C)(F)F)n1 [Example 71, N-(4-((2-(1,1-difluoroethyl)-6-ethylpyrimidin-4-yl)amino)-5-(2-(4-methylpiperazin-1-yl)ethoxy)pyridin-2-yl)acetamide]
Tyk2
  IC50: ≤ 0.01 µM
JH2 domain of human Tyk2
  IC50: ≤ 0.01 µM

## COCCOc1cnc(NC(C)=O)cc1Nc1cccc(C2CCOC2)n1 (centres unmarked) [Example 72, N-(5-(2-methoxyethoxy)-4-((6-(tetrahydrofuran-3-yl)pyridin-2-yl)amino)pyridin-2-yl)acetamide]
Tyk2
  IC50: 0.1 to 1 µM
JH2 domain of human Tyk2
  IC50: ≤ 0.01 µM

## CC(=O)Nc1cc(Nc2cc(C)nc(C(C)(F)F)n2)c(OCC2CC2(F)F)cn1 (centres unmarked) [Example 74, N-(5-((2,2-difluorocyclopropyl)methoxy)-4-((2-(1,1-difluoroethyl)-6-methylpyrimidin-4-yl)amino)pyridin-2-yl)acetamide]
Tyk2
  IC50: 0.01 to 0.1 µM
JH2 domain of human Tyk2
  IC50: ≤ 0.01 µM

## COCCOc1cnc(NC(C)=O)cc1Nc1nccc(C(C)(F)F)n1 [Example 75, N-(4-((4-(1,1-difluoroethyl)pyrimidin-2-yl)amino)-5-(2-methoxyethoxy)pyridin-2-yl)acetamide]
Tyk2
  IC50: 0.1 to 1 µM
JH2 domain of human Tyk2
  IC50: ≤ 0.01 µM

## COCCOc1cnc(NC(C)=O)cc1Nc1nc(C)cc(C(C)(F)F)n1 [Example 78]
Tyk2
  IC50: 0.01 to 0.1 µM
JH2 domain of human Tyk2
  IC50: ≤ 0.01 µM

## COCCOc1cnc(NC(C)=O)cc1Nc1cc(C)nc(C(F)CF)n1 (centres unmarked) [Example 79, N-(4-((2-(1,2-difluoroethyl)-6-methylpyrimidin-4-yl)amino)-5-(2-methoxyethoxy)pyridin-2-yl)acetamide]
Tyk2
  IC50: 0.01 to 0.1 µM
JH2 domain of human Tyk2
  IC50: ≤ 0.01 µM

## COCCOc1cnc(NC(C)=O)cc1Nc1nc(C)cc(C(F)CF)n1 (centres unmarked) [Example 80, N-(4-((4-(1,2-difluoroethyl)-6-methylpyrimidin-2-yl)amino)-5-(2-methoxyethoxy)pyridin-2-yl)acetamide]
Tyk2
  IC50: 0.1 to 1 µM
JH2 domain of human Tyk2
  IC50: 0.01 to 0.1 µM

## COCCOc1cnc(NC(C)=O)cc1Nc1cc(C)nc(C(C)(F)CF)n1 (centres unmarked) [Example 81, N-(4-((2-(1,2-difluoropropan-2-y1)-6-methylpyrimidin-4-yl)amino)-5-(2-methoxyethoxy)pyridin-2-yl)acetamide]
Tyk2
  IC50: 0.01 to 0.1 µM
JH2 domain of human Tyk2
  IC50: ≤ 0.01 µM
